# From patent US20260184700A1, “PDK1 REGULATORY COMPOUND AND COMPOSITION CONTAINING THE SAME” (PROVIBIO CO., LTD., priority 2024, published 2026)
# Experiments:
# [1] = test system: HCT-116 colon cancer cell lines; test: Invasion Assay using Matrigel, HCT-116; type: cell-based, human; conditions: HCT-116, Matrigel invasion, 24 hours treatment
# Procedure: To evaluate the metastasis inhibitory efficacy of the compounds of the present invention on HCT-116 colon cancer cell lines, an Invasion Assay using Matrigel was performed to assess the cells' invasion ability.
# First, Matrigel was thawed on ice in RPMI-1640 medium without FBS, then diluted with DMEM at a ratio of 1:20.
# The diluted Matrigel mixture was applied to the upper chamber at 100 μl per well, and 750 μl of RPMI-1640 without FBS was added to the lower chamber.
# The plates were then incubated at 37° C. for 1 hour to allow the Matrigel to solidify.
# After coating, the Matrigel mixture in the upper chamber was removed using a pipette, and the chamber was washed with RPMI without FBS.
# Human-derived colorectal cancer cell line HCT-116, obtained from the Korean Cell Bank, was cultured in RPMI-1640 medium containing 10% FBS.
# Following stabilization, the cells were harvested using Trypsin-EDTA treatment, centrifuged at 1,200 rpm for 3 minutes, the supernatant was removed, and the cells were resuspended in the same medium, the medium in the lower chamber was replaced with 750 μl of RPMI-1640 supplemented with 10% FBS, and the cells were seeded into the upper chamber at a density of 5×10^4 cells/well.
# The cells were cultured for 24 hours after attachment, and then the compounds according to the present invention (G078, G085, G086, G088, G089, PBK-2024-010, PBK-2025-010, PBK-2025-013, PBK-2025-016) and the control substance DMSO were diluted and added to the upper chamber after removing the medium.
# Additionally, the medium in the lower chamber was replaced with fresh RPMI-1640 containing FBS, and the culture was continued.
# After an additional 24 hours, the medium was removed, and 1 ml of methanol was added for 10 minutes to fix the cells.
# Subsequently, 1 ml of Hematoxylin was added and reacted for 5 minutes, followed by 1 ml of Eosin, which was reacted for 30 seconds. The sample was then washed with distilled water (DW).
# After staining was complete, any remaining cells in the upper chamber were removed. Finally, the infiltrated cells were observed under a microscope, photographed, and the degree of infiltration was analyzed.
# [2] = test system: Human B Lymphocyte cell line, SU-DHL-8; test: Relative cell viability, CCK-8, SU-DHL-8; type: cell-based; conditions: 48 hours
# Procedure: Human-derived B lymphoma cell line SU-DHL-8 (Cat. #CRL-2961) purchased from ATCC was cultured in RPMI-1640 medium containing 10% FBS, 100 U/mL penicillin, and 100 μg/mL streptomycin.
# The cell culture medium was then harvested, centrifuged at 1,300 rpm for 5 minutes, and the supernatant was removed. The cells were resuspended in the same medium and dispensed into a 96-well plate (Costar 96-well cell culture plate, Corning) at 90 μL per well, resulting in the conditions specified in Table 5.
# Then, 10 μL of CCK-8 was added to each well, and the plates were incubated again at 37° C. in a 5% CO2 incubator for 4 hours.
# In other words, when the survival rate of untreated cells (DMSO) is set at 100%, the relative cell survival rate in each group treated with the drug at different concentrations is indicated.
# [3] = test system: T cells isolated from mouse spleen; test: T cell proliferation inhibition, CFSE flow cytometry, CD3/CD28 activation; type: cell-based; conditions: CD3/CD28 activated, 3 days
# Procedure: To verify the T cell proliferation inhibitory effect of the compounds according to the present invention, the following experiment was performed based on flow cytometry analysis using carboxyfluorescein diacetate succinimidyl ester (CFSE), a fluorescent dye that binds to intracellular molecules via covalent bonds.
# Spleens were extracted from 7-week-old C57BL/6 mice, ground, and then separated into single cells using a strainer (40 μm pore size, SPL). Red blood cells were removed using ACK (Ammonium-Chloride-Potassium) lysis buffer to isolate white blood cells.
# Finally, using a MACS Magnetic Stand and LS column, T cells were isolated from the spleen.
# The T cells isolated from the spleen were resuspended in 1 mL of free medium (RPMI-1640+200 U/mL penicillin+200 μg/mL streptomycin), and 0.3 μL of CFSE (10 mM) was added. The mixture was incubated at 37° C. for 5 minutes.
# Free medium (10 mL) was added to stop the reaction, and the cells were centrifuged to obtain the cell pellet.
# RPMI 1640 medium containing 10% FBS, 100 U/mL penicillin, 100 μg/mL streptomycin, and resuspended the cells. The cells were then seeded into a 96-well plate at a density of 2×10^5 cells per well and activated with CD3 and CD28 antibodies (0.5 μg/mL each) to activate T cells.
# The compound diluted in DMSO was added at concentrations of 10 nM, 100 nM, 1 μM, 10 μM, 30 μM, and 50 μM, with three wells per concentration, and cultured at 37° C. and 5% CO2 for three days. The cells were then analyzed using a FACS Canto instrument.
# The proliferation inhibition rate (%) was calculated using the following formula: […]
Compound,number of infiltrated cells [1],"Relative cell viability (%) ([2]; SU-DHL-8, 1 μM)","Relative cell viability (%) ([2]; SU-DHL-8, 10 μM)","Relative cell viability (%) ([2]; SU-DHL-8, 30 μM)","Relative cell viability (%) ([2]; SU-DHL-8, 50 μM)",Proliferation inhibition rate (%) ([3]; compound 100 nM),Proliferation inhibition rate (%) ([3]; compound 1 μM),Proliferation inhibition rate (%) ([3]; compound 10 μM),Proliferation inhibition rate (%) ([3]; compound 30 μM),Proliferation inhibition rate (%) ([3]; compound 50 μM),Proliferation inhibition rate (%) ([3]; compound 10 nM)
"Nc1ncccc1C(=O)NCCCCCCCCCCCCN1CCNCC1 [Compound 5, 2-Amino-N-(12-(piperazin-1-yl)dodecyl)-nicotinamide]",reduction in the number of infiltrated cells,,,,,,,,,,
"CN1CCN(C(=O)OC(C)(C)C)CC1CCCCCCCCNC(=O)c1cccnc1N (centres unmarked) [Compound 12, tert-Butyl 3-(8-(2-aminonicotinamide)octyl)-4-methylpiperazine-1-carboxylate]",,7.60,3.79,1.64,1.13,,,,,,
"CC1CN(CCCCCCCCCCCCNC(=O)c2cccnc2N)CC(C)O1 (centres unmarked) [Compound 21, 2-Amino-N-(12-(2,6-dimethylmorpholino)dodecyl) nicotinamide]",,,,3.70,,100.00,100.00,100.00,100.00,100.00,
"O=C(NCCCCCCCCCCCCN1CCN2CCCC2C1)c1cccnc1 (centres unmarked) [Compound 23, N-(12-(hexahydropyrrolo[1,2-a]pyrazin-2 (1H)-yl)dodecyl)nicotinamide]",reduction in the number of infiltrated cells,,,,,,,,,,
"CC1CCN(CCCCCCCCCCCCNC(=O)c2cccnc2N)C1 (centres unmarked) [Compound 24, 2-Amino-N-(12-(3-methylpyrrolidin-1-yl)dodecyl) nicotinamide]",,,,0.62,,100.00,100.00,100.00,100.00,100.00,
"Nc1ncccc1C(=O)NCCCCCCCCCCCCN1CCS(=O)(=O)CC1 [Compound 25, 2-Amino-N-(12-(1,1-dioxidothiomorpholino)dodecyl) nicotinamide]",,,,0.11,0.95,,100.00,100.00,100.00,100.00,
"Nc1ncccc1C(=O)NCCCCCCCCCCCCN1CCC(F)C1 (centres unmarked) [Compound 26, 2-Amino-N-(12-(3-fluoropyrrolidin-1-yl)dodecyl) nicotinamide]",,1.70,,0.05,,100.00,100.00,100.00,100.00,100.00,
"CC1CNCCN1CCCCCCCCCCCCNC(=O)c1cccnc1N (centres unmarked) [Compound 35, 2-Amino-N-(12-(2-methylpiperazin-1-yl)dodecyl) nicotinamide]",,,0.64,0.42,,100.00,100.00,100.00,100.00,100.00,
"Nc1ncccc1C(=O)NCCCCCCCCCCCCN1CCC(Oc2ccncc2)CC1 [Compound 38, 2-Amino-N-(12-(4-(pyridin-4-yloxy)piperidin-1-yl)dodecyl) nicotinamide]",,,3.30,,,100.00,100.00,100.00,100.00,100.00,
"CC(C)(C)OC(=O)N[C@H]1CCN(CCCCCCCCCCCCNC(=O)c2cccnc2N)C1 [Compound 49, tert-Butyl(S)-(1-(12-(2-aminonicotinamido)dodecyl)pyrrolidin-3-yl)carbamate]",reduction in the number of infiltrated cells,,,,,,,,,,
"Cl.Nc1ncccc1C(=O)NCCCCCCCCCCCCN1CC[C@H](N)C1 [Compound 50, (S)-2-Amino-N-(12-(3-aminopyrrolidin-1-yl)dodecyl) nicotinamide Hydrochloride]",,9.20,,,,100.00,100.00,100.00,100.00,100.00,
"Cc1ccc(OC2CCN(CCCCCCCCCCCCNC(=O)c3cccnc3N)CC2)cc1 [Compound 51, 2-Amino-N-(12-(4-(p-tolyloxy)piperidin-1-yl)dodecyl) nicotinamide]",,,,0.89,0.48,,100.00,100.00,100.00,100.00,0.77
"Nc1ncccc1C(=O)NCCCCCCCCCCCCN1CC(F)C1 [Compound 52, 2-Amino-N-(12-(3-fluoroazetidin-1-yl)dodecyl)nicotinamide]",reduction in the number of infiltrated cells,,,,,,,,,,
"Cc1ccc(C2CCN(CCCCCCCCCCCCNC(=O)c3cccnc3N)CC2)cc1 [Compound 55, 2-Amino-N-(12-(4-(p-tolyl)piperidin-1-yl)dodecyl) nicotinamide]",,,,1.10,0.97,100.00,100.00,100.00,100.00,100.00,
"Nc1ncccc1C(=O)NCCCCCCCCCCCCN1CCOC1=O [Compound 127, 2-amino-N-(12-(2-oxooxazolidin-3-yl)dodecyl) nicotinamide]",,,,,,,,100.00,100.00,100.00,
"Nc1ncccc1C(=O)NCCCCCCCCCCCCNC1CCOC1 (centres unmarked) [Compound 128, 2-amino-N-(12-((tetrahydrofuran-3-yl)amino)dodecyl) nicotinamide]",,,,,,100.00,100.00,100.00,100.00,100.00,
"Nc1ncccc1C(=O)NCCCCCCCCCCCCN1CC=CC1 [Compound 129, 2-amino-N-(12-(2,5-dihydro-1H-pyrrol-1-yl)dodecyl) nicotinamide]",,,,,,90.00,100.00,100.00,100.00,100.00,0.00
